These results are taken from patent US8853392B2, “Benzamide mGluR5 positive allosteric modulators and methods of making and using same” (Vanderbilt University, priority 2007, dated 2014).

The target of the assay is T1, rat mGluR5 (Rattus norvegicus, UniProt P31424).
T1 construct: expressed in transfected cells; host or cells: human embryonic kidney (HEK) cells
As to the kind of experiment: potentiation of mGluR5 response to glutamate, Ca2+ fluorescence (FDSS) in HEK cells transfected with rat mGluR5. The assay is classed as cell-based. The conditions noted are these: for Emax: HEK293, maximum extent of potentiation, normalized to maximal response to glutamate, read-out: % Glu Max; for EC50: read-out: EC50. On the procedure: Human embryonic kidney (HEK) cells transfected with rat mGluR5 were plated in clear bottom assay plates for assay in a Functional Drug Screening System (FDSS). The cells were loaded with a Ca^2+-sensitive fluorescent dye (e.g., Fluo-4), and the plates were washed and placed in the FDSS instrument. After establishment of a fluorescence baseline for twelve seconds, the compounds of the present invention were added to the cells, and the response in cells was measured. Five minutes later, an mGluR5 agonist (e.g., glutamate, 3,5-dihydroxyphenylglycine, or quisqualate) was added to the cells, and the response of the cells was measured. Potentiation of the agonist response of mGluR5 by the compounds in the present invention was observed as an increase in response to non-maximal concentrations of agonist (here, glutamate) in the presence of compound compared to the response to agonist in the absence of compound.
The above described assay operated in two modes. In the first mode, a range of concentrations of the present compounds were added to cells, followed by a single fixed concentration of agonist. If a compound acted as a potentiator, an EC50 value for potentiation and a maximum extent of potentiation by the compound at this concentration of agonist was determined by non-linear curve fitting. In the second mode, several fixed concentrations of the present compounds were added to various wells on a plate, followed by a range of concentrations of agonist for each concentration of present compound; the EC50 values for the agonist at each concentration of compound were determined by non-linear curve fitting. A decrease in the EC50 value of the agonist with increasing concentrations of the present compounds (a leftward shift of the agonist concentration-response curve) is an indication of the degree of mGluR5 potentiation at a given concentration of the present compound. An increase in the EC50 value of the agonist with increasing concentrations of the present compounds (a rightward shift of the agonist concentration-response curve) is an indication of the degree of mGluR5 antagonism at a given concentration of the present compound. The second mode also indicates whether the present compounds also affect the maximum response to mGluR5 to agonists.
Human embryonic kidney (HEK) cells transfected with rat mGluR5 were plated in clear-bottomed, poly-D-lysine-coated assay plates in glutamate-glutamine-free medium growth and incubated overnight at 37° C. in 5% CO2. The following day, cells were loaded with 2 μM calcium indicator dye, fluo-4 AM, for 1 h at 37° C. Dye was removed and replaced with assay buffer containing 1× Hanks balanced salt solution (Invitrogen, Carlsbad, Calif.), 20 mM HEPES, and 2.5 mM probenecid, pH 7.4. Cell plates were then loaded into the Functional Drug Screening System 6000 (FDSS 6000, Hamamatsu, Japan). After establishment of a fluorescence baseline for twelve seconds, the compounds of the present invention were added to the cells, and the response in cells was measured. Five minutes later, an mGluR5 agonist (e.g., glutamate, 3,5-dihydroxyphenylglycine, or quisqualate) was added to the cells, and the response of the cells was measured during a 1 minute incubation with agonists. Typically, the effect of test compounds of the present invention was on an EC20 concentration of glutamate was measured. All test compounds were dissolved and diluted in 100% DMSO and then serially diluted into assay buffer for a 2.5× stock in 0.25% DMSO; stock compounds were then added to the assay for a final DMSO concentration of 0.1%. Calcium fluorescence measures were recorded as fold over basal fluorescence; raw data was then normalized to the maximal response to agonist. Potentiation of the agonist response of mGluR5 by the compounds in the present invention was observed as an increase in response to non-maximal concentrations of agonist (here, glutamate) in the presence of compound compared to the response to agonist in the absence of compound. […]

[1] abbreviates: Table 1, EC50 for potentiating the mGluR5 receptor, unit inferred.
[2] abbreviates: potentiation of glutamate response, HEK cells transfected with rat mGluR5, SAR tables.

Each structure is given as a SMILES string. Like-named read-outs stand apart in the source and are kept apart here.

T1 sequence (P31424 21-1203): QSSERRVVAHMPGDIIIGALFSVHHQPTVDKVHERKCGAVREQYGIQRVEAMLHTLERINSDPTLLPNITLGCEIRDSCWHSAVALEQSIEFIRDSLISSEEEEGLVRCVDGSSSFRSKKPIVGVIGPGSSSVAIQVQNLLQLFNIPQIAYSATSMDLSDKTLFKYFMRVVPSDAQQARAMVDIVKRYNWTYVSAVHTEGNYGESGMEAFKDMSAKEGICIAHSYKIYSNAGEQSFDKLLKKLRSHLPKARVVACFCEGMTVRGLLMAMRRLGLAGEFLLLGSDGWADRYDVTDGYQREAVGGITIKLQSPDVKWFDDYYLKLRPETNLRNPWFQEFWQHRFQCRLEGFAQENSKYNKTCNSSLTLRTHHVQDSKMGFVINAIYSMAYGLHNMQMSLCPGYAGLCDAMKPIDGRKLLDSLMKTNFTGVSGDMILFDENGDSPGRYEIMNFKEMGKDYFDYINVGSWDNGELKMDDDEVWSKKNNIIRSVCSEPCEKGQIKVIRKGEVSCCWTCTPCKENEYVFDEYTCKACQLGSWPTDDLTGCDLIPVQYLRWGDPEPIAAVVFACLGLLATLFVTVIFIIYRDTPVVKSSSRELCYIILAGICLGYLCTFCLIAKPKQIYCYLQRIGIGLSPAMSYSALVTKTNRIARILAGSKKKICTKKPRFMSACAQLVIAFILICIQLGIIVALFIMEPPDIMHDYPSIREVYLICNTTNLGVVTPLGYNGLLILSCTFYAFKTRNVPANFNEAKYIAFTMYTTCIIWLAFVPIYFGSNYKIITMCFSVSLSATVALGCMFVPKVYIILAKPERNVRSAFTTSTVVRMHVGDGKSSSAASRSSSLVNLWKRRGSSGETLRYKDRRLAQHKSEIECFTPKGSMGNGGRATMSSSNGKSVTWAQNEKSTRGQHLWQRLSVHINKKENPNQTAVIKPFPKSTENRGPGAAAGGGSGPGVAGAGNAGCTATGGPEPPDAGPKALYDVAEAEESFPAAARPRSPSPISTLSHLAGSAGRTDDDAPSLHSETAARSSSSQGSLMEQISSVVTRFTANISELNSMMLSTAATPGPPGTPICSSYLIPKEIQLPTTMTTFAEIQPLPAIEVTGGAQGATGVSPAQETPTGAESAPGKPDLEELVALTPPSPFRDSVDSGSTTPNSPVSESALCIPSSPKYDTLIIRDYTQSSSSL

As for `O=C(c1ccc(C#Cc2ccccc2F)cc1)N1CCC(CO)CC1` [Compound 20e, (4-((2-fluorophenyl)ethynyl)phenyl)(4-(hydroxymethyl)piperidin-1-yl)methanone], where the note is “SAR tables”, the Emax was 88%. For the same compound, the EC50 – broadly, the midpoint of the concentration-response curve – is 23.6 nM under setting [1] and 20.6 nM under setting [2]. The matching figures for `O=C(c1ccc(C#Cc2cccc(F)c2)cc1)N1CCC(CO)CC1` [Compound 20f, (4-((3-fluorophenyl)ethynyl)phenyl)(4-(hydroxymethyl)piperidin-1-yl)methanone]: 86%, 11.9 nM and 11.9 nM.

As to `O=C(c1ccc(C#Cc2ccc(F)cc2)cc1)N1CCC(CO)CC1` [Compound 20g, (4-((4-fluorophenyl)ethynyl)phenyl)(4-(hydroxymethyl)piperidin-1-yl)methanone], the Emax (SAR tables) worked out at 95%. The EC50 was 26.1 nM under setting [1] and 24.7 nM under setting [2]. The corresponding values for `O=C(c1ccc(C#Cc2ccc(F)c(F)c2)cc1)N1CCC(CO)CC1` [Compound 20h, (4-((3,4-difluorophenyl)ethynyl)phenyl)(4-(hydroxymethyl)piperidin-1-yl)methanone] are 104%, 81.7 nM and 76.3 nM. The corresponding values for `O=C(c1ccc(C#Cc2ccccc2F)cc1)N1CCOCC1` [Compound 20i, (4-((2-fluorophenyl)ethynyl)phenyl)(morpholino)methanone] are 105%, 12 nM and 12 nM. The corresponding values for `O=C(c1ccc(C#Cc2cccc(F)c2)cc1)N1CCOCC1` [Compound 20j, (4-((3-fluorophenyl)ethynyl)phenyl)(morpholino)methanone] are 112%, 5.32 nM and 5.3 nM. Regarding `O=C(c1ccc(C#Cc2ccc(F)cc2)cc1)N1CCOCC1` [Compound 20k, (4-((4-fluorophenyl)ethynyl)phenyl)(morpholino)methanone], where the note is “SAR tables”, the Emax stood at 107%. Besides, the EC50 runs as follows: under setting [1], 24.7 nM; under setting [2], 23.6 nM.

On to `O=C(c1ccc(C#Cc2ccc(F)c(F)c2)cc1)N1CCOCC1` [Compound 20l, (4-((3,4-difluorophenyl)ethynyl)phenyl)(morpholino)methanone], for which the Emax (SAR tables) amounted to 114%. Further, the EC50 by setting is: under setting [1], 35.1 nM; under setting [2], 33.5 nM. Consider `O=C(c1ccc(C#Cc2ccccc2F)cc1)N1CC(O)C1` [Compound 20m, (4-((2-fluorophenyl)ethynyl)phenyl)(3-hydroxyazetidin-1-yl)methanone], for which the Emax (SAR tables) is 98%. The EC50 under setting [1] came to 187 nM and the EC50 under setting [2] was 166 nM. As for `O=C(c1ccc(C#Cc2cccc(F)c2)cc1)N1CC(O)C1` [Compound 20n, (4-((3-fluorophenyl)ethynyl)phenyl)(3-hydroxyazetidin-1-yl)methanone], the Emax (SAR tables) turned out to be 104%. Besides, the EC50 reads like this: under setting [1], 73 nM; under setting [2], 59.5 nM. `O=C(c1ccc(C#Cc2ccc(F)cc2)cc1)N1CC(O)C1` [Compound 20o, (4-((4-fluorophenyl)ethynyl)phenyl)(3-hydroxyazetidin-1-yl)methanone]: the Emax (SAR tables) worked out at 103%. Moreover, the EC50 by setting is: under setting [1], 162 nM; under setting [2], 155 nM.

As for `O=C(c1ccc(C#Cc2ccc(F)c(F)c2)cc1)N1CC(O)C1` [Compound 20p, (4-((3,4-difluorophenyl)ethynyl)phenyl)(3-hydroxyazetidin-1-yl)methanone], the Emax (SAR tables) amounted to 88%. The EC50 under setting [1] is 387 nM and the concentration giving a half-maximal response (EC50) under setting [2] is 314 nM. In the case of `O=C(NC1CCc2ccccc21)c1ccc(C#Cc2ccccc2)cc1` (stereo not shown) [N-(2,3-dihydro-1H-inden-1-yl)-4-(phenylethynyl)benzamide], the EC50 under setting [1] was 146 nM. On the same count and under the same terms, next, `O=C(NC1Cc2ccccc2C1)c1ccc(C#Cc2ccccc2)cc1` [N-(2,3-dihydro-1H-inden-2-yl)-4-(phenylethynyl)benzamide]: 159 nM; `CN1CCCC1CCNC(=O)c1ccc(C#Cc2ccccc2)cc1` (stereo not shown) [N-(2-(1-methylpyrrolidin-2-yl)ethyl)-4-(phenylethynyl)benzamide]: 3530 nM; `CN(C)CCNC(=O)c1ccc(C#Cc2ccccc2)cc1` [N-(2-(dimethylamino)ethyl)-4-(phenylethynyl)benzamide]: 2990 nM. The same measure, in the same setting: in the case of `O=C(NCCc1ccccc1Cl)c1ccc(C#Cc2ccccc2)cc1` [N-(2-chlorophenethyl)-4-(phenylethynyl)benzamide] it was 135 nM.

On to `O=C(NCCC1=CCCCC1)c1ccc(C#Cc2ccccc2)cc1` [N-(2-cyclohexenylethyl)-4-(phenylethynyl)benzamide], for which the 50% effective concentration (EC50) under setting [1] is 75.3 nM. On the same count and under the same terms, in the case of `O=C(NCCN1CCOCC1)c1ccc(C#Cc2ccccc2)cc1` [N-(2-morpholinoethyl)-4-(phenylethynyl)benzamide] it was 137 nM; in that of `CC(C)(C)CCNC(=O)c1ccc(-c2nc(-c3ccccc3)no2)cc1` [N-(3,3-dimethylbutyl)-4-(3-phenyl-1,2,4-oxadiazol-5-yl)benzamide], 1160 nM. Consider `CC(C)(C)CCNC(=O)c1ccc(C#Cc2ccccc2)cc1` [N-(3,3-dimethylbutyl)-4-(phenylethynyl)benzamide], for which, under setting [1], the EC50 came out at 19.4 nM. On the same count and under the same terms, in the case of `O=C(NCCc1cccc(Cl)c1)c1ccc(C#Cc2ccccc2)cc1` [N-(3-chlorophenethyl)-4-(phenylethynyl)benzamide] it was 206 nM; in that of `O=C(NCCCO)c1ccc(C#Cc2ccccc2)cc1` [N-(3-hydroxypropyl)-4-(phenylethynyl)benzamide], 86.2 nM; in that of `O=C(NCCCN1CCOCC1)c1ccc(C#Cc2ccccc2)cc1` [N-(3-morpholinopropyl)-4-(phenylethynyl)benzamide], 1230 nM. Still for that read-out and setting: next, `O=C(NCCc1ccc(Br)cc1)c1ccc(C#Cc2ccccc2)cc1` [N-(4-bromophenethyl)-4-(phenylethynyl)benzamide]: 237 nM; `O=C(NCCc1ccc(Cl)cc1)c1ccc(C#Cc2ccccc2)cc1` [N-(4-chlorophenethyl)-4-(phenylethynyl)benzamide]: 177 nM; `CC1CCCCN1C(=O)c1ccc(C(=O)Nc2ccc(F)cc2)cc1` (stereo not shown) [N-(4-fluorophenyl)-4-(2-methylpiperidine-1-carbonyl)benzamide]: 3330 nM. `CC1CCC(NC(=O)c2ccc(C#Cc3ccccc3)cc2)CC1` (stereo not shown) [N-(4-methylcyclohexyl)-4-(phenylethynyl)benzamide]: the EC50 under setting [1] stood at 76.3 nM. Still for that read-out and setting: next, `O=C(NCC1CCCCC1)c1ccc(C#Cc2ccccc2)cc1` [N-(cyclohexylmethyl)-4-(phenylethynyl)benzamide]: 68.7 nM; `CCCCNC(=O)c1ccc(C#Cc2ccccc2)cc1` [N-butyl-4-(phenylethynyl)benzamide]: 33.5 nM. Take `O=C(NC1CCCC1)c1ccc(C#Cc2ccccc2)cc1` [N-cyclopentyl-4-(phenylethynyl)benzamide]: the EC50 under setting [1] is 2.78 nM. On to `CC(C)CCNC(=O)c1ccc(C#Cc2ccccc2)cc1` [N-isopentyl-4-(phenylethynyl)benzamide], for which the EC50 under setting [1] was determined as 27.3 nM. The same measure, in the same setting: in the case of `O=C(c1ccc(C#Cc2ccccc2)cc1)N1CCC(O)(c2ccc(F)cc2)CC1` [drawing 155, (4-(4-fluorophenyl)-4-hydroxypiperidin-1-yl)(4-(phenylethynyl)phenyl)methanone] it was 1250 nM; in that of `O=C(c1ccc(C#Cc2ccccc2)cc1)N1CCC(O)(c2cccc(F)c2)CC1` [drawing 160, (4-(3-fluorophenyl)-4-hydroxypiperidin-1-yl)(4-(phenylethynyl)phenyl)methanone], 1770 nM.
